Test results reported in patent US7928098B2, “Therapeutic and/or preventive agents for a sleep disorder” (Kyowa Hakko Kirin Co., Ltd., priority 2005, dated 2011).

Key:
[1] = test system: ddY male mice; experiment: Effect on pentobarbital sodium-induced sleeping time (loss of righting reflex); assay type: in vivo; details: Table 5-1, groups of seven, test compound 10 mg/kg p.o. one hour before pentobarbital-Na 25 mg/kg s.c., controls 52.12 ± 5.20 (r5) and 35.56 ± 5.21 (r11)
Procedure: The test was conducted to examine influence of Compound (I) of the present invention on pentobarbital sodium-induced sleeping time, according to the method of Iyakuhin no Kaihatsu, Vol. 9, Iyakuhin no Tansaku I, “antihypnotic”, p. 220-226, Hirokawa Shoten.
For the test, ddY male mice (19-21 g body weight; Japan SLC, Inc.) were used. All test compounds were used by suspending in distilled water (Otsuka Pharmaceutical Factory, Inc.) containing 0.5 volume/weight % methylcellulose (0.5% MC: Wako Pure Chemical Industries, Ltd.). A volume of 0.1 mL was administered per 10 g body weight of mice.
Groups of seven mice were used. To the control groups were orally administrated 0.5% MC, whereas a suspension of the test compound was orally administered to the test compound administered groups. One hour after the administration, pentobarbital sodium (pentobarbital-Na: Tokyo Chemical Industry Co., Ltd., 25 mg/kg) was administered subcutaneously. Mouse placed in a recumbent position, the mouse immediately returns to a proper upright position (this is known as righting reflex). However, the administration of pentobarbital sodium eliminated the righting reflex in the control groups. The time period in which the administration of […] eliminated the righting reflex was regarded as a sleeping time. By a measurement of time disappearing righting reflex immediately after the administration, the sleeping time was determined.

SMILES	Sleeping time (min) Mean value ± standard deviation [1]	melting point
O=C(Nc1nc(-c2ccco2)c(-c2ccncc2)s1)c1ccncc1 [Compound 1, N-[4-(2-Furyl)-5-(4-pyridyl)thiazol-2-yl]pyridine-4-carboxamide]	15.58 ± 8.50 min	
O=C(Nc1nc(-c2ccco2)c(-c2ccncc2)s1)c1cccnc1 [Compound 5, N-[4-(2-Furyl)-5-(4-pyridyl)thiazol-2-yl]pyridine-3-carboxamide]	0.82 ± 0.82 min	
O=C(Nc1nc(-c2ccco2)c(-c2ccncc2)s1)c1ccco1 [Compound 7, N-[4-(2-Furyl)-5-(4-pyridyl)thiazol-2-yl]furan-2-carboxamide]	6.38 ± 4.58 min	
O=C(Nc1nc(-c2ccco2)c(-c2ccncc2)s1)c1ccoc1 [Compound 8, N-[4-(2-Furyl)-5-(4-pyridyl)thiazol-2-yl]furan-3-carboxamide]	4.16 ± 4.16 min	
O=C(Nc1nc(-c2ccco2)c(-c2ccncc2)s1)c1ccc(Cn2ccnc2)cc1 [Compound 11, N-[4-(2-Furyl)-5-(4-pyridyl)thiazol-2-yl]-4-(imidazole-1-ylmethyl)benzamide]	22.75 ± 6.63 min	
O=C(C=Cc1ccccc1)Nc1nc(-c2ccco2)c(C(=O)C2CCOCC2)s1 [Compound 433, N-[4-(2-Furyl)-5-(tetrahydropyran-4-ylcarbonyl)thiazol-2-yl]-3-phenylacrylamide]		253 to 256 °C
O=C(COc1ccccc1)Nc1nc(-c2ccco2)c(C(=O)C2CCOCC2)s1 [Compound 434, N-[4-(2-Furyl)-5-(tetrahydropyran-4-ylcarbonyl)thiazol-2-yl]-2-phenoxyacetamide]		148 to 150 °C
COCC(=O)Nc1nc(-c2ccco2)c(C(=O)C2CCOCC2)s1 [Compound 435, N-[4-(2-Furyl)-5-(tetrahydropyran-4-ylcarbonyl)thiazol-2-yl]-2-methoxyacetamide]		148 to 149 °C
CCOCC(=O)Nc1nc(-c2ccco2)c(C(=O)C2CCOCC2)s1 [Compound 437, 2-Ethoxy-N-[4-(2-furyl)-5-(tetrahydropyran-4-ylcarbonyl)-thiazol-2-yl]acetamide]		121 to 126 °C
CN(C)CC(=O)Nc1nc(-c2ccco2)c(C(=O)C2CCOCC2)s1 [Compound 438, 2-(Dimethylamino)-N-[4-(2-furyl)-5-(tetrahydropyran-4-ylcarbonyl)thiazol-2-yl]acetamide]		129 to 130 °C
COCCN(C)CC(=O)Nc1nc(-c2ccco2)c(C(=O)C2CCOCC2)s1 [Compound 439, N-[4-(2-Furyl)-5-(tetrahydropyran-4-ylcarbonyl)thiazol-2-yl]-2-[N-(2-methoxyethyl)-N-methylamino]acetamide]		103 to 105 °C
O=C(CN1CCCC1)Nc1nc(-c2ccco2)c(C(=O)C2CCOCC2)s1 [Compound 441, N-[4-(2-Furyl)-5-(tetrahydropyran-4-ylcarbonyl)thiazol-2-yl]-2-(1-pyrrolidinyl)acetamide]		115 to 117 °C
COC[C@H]1CCCN1CC(=O)Nc1nc(-c2ccco2)c(C(=O)C2CCOCC2)s1 [Compound 442, N-[4-(2-Furyl)-5-(tetrahydropyran-4-ylcarbonyl)thiazol-2-yl]-2-[(2R)-2-(methoxymethyl)pyrrolidin-1-yl]acetamide]		103 to 104 °C
COC[C@@H]1CCCN1CC(=O)Nc1nc(-c2ccco2)c(C(=O)C2CCOCC2)s1 [Compound 443, N-[4-(2-Furyl)-5-(tetrahydropyran-4-ylcarbonyl)thiazol-2-yl]-2-[(2S)-2-(methoxymethyl)pyrrolidin-1-yl]acetamide]		102 to 103 °C
O=C(CN1CCCCC1)Nc1nc(-c2ccco2)c(C(=O)C2CCOCC2)s1 [Compound 447, N-[4-(2-Furyl)-5-(tetrahydropyran-4-ylcarbonyl)thiazol-2-yl]-2-piperidinoacetamide]		146 to 147 °C
O=C(CN1CCC(O)CC1)Nc1nc(-c2ccco2)c(C(=O)C2CCOCC2)s1 [Compound 448, N-[4-(2-Furyl)-5-(tetrahydropyran-4-ylcarbonyl)thiazol-2-yl]-2-(4-hydroxypiperidino)acetamide]		178 to 180 °C

SMILES	Sleeping time (min) Mean value ± standard deviation [1]	melting point
COC1CCN(CC(=O)Nc2nc(-c3ccco3)c(C(=O)C3CCOCC3)s2)CC1 [Compound 450, N-[4-(2-Furyl)-5-(tetrahydropyran-4-ylcarbonyl)thiazol-2-yl]-2-(4-methoxypiperidino)acetamide]		109 to 111 °C
CC1(O)CCN(CC(=O)Nc2nc(-c3ccco3)c(C(=O)C3CCOCC3)s2)CC1 [Compound 451, N-[4-(2-Furyl)-5-(tetrahydropyran-4-ylcarbonyl)thiazol-2-yl]-2-(4-hydroxy-4-methylpiperidino)acetamide]		151 to 153 °C
O=C(CN1CCC(N2CCCC2)CC1)Nc1nc(-c2ccco2)c(C(=O)C2CCOCC2)s1 [Compound 456, N-[4-(2-Furyl)-5-(tetrahydropyran-4-ylcarbonyl)thiazol-2-yl]-2-[4-(1-pyrrolidinyl)piperidino]acetamide]		183 to 184 °C
O=C(CN1CCC(N2CCCCC2)CC1)Nc1nc(-c2ccco2)c(C(=O)C2CCOCC2)s1 [Compound 457, N-[4-(2-Furyl)-5-(tetrahydropyran-4-ylcarbonyl)thiazol-2-yl]-2-(4-piperidinopiperidino)acetamide]		177 to 179 °C
O=C(CN1CCC(N2CCOCC2)CC1)Nc1nc(-c2ccco2)c(C(=O)C2CCOCC2)s1 [Compound 458, N-[4-(2-Furyl)-5-(tetrahydropyran-4-ylcarbonyl)thiazol-2-yl]-2-(4-morpholinopiperidino)acetamide]		193 to 195 °C
O=C(CN1CCC2(CC1)OCCO2)Nc1nc(-c2ccco2)c(C(=O)C2CCOCC2)s1 [Compound 459, 2-(1,4-Dioxa-8-azaspiro[4.5]decan-8-yl)-N-[4-(2-furyl)-5-(tetrahydropyran-4-ylcarbonyl)thiazol-2-yl]acetamide]		186 to 187 °C
CN1CCN(CC(=O)Nc2nc(-c3ccco3)c(C(=O)C3CCOCC3)s2)CC1 [Compound 467, N-[4-(2-Furyl)-5-(tetrahydropyran-4-ylcarbonyl)thiazol-2-yl]-2-(4-methylpiperazin-1-yl)acetamide]		106 to 112 °C
CC(C)(O)CN1CCN(CC(=O)Nc2nc(-c3ccco3)c(C(=O)C3CCOCC3)s2)CC1 [Compound 470, N-[4-(2-Furyl)-5-(tetrahydropyran-4-ylcarbonyl)thiazol-2-yl]-2-[4-(2-hydroxy-2-methylpropyl)piperazin-1-yl]acetamide]		106 to 108 °C
COC(C)(C)CN1CCN(CC(=O)Nc2nc(-c3ccco3)c(C(=O)C3CCOCC3)s2)CC1 [Compound 471, N-[4-(2-Furyl)-5-(tetrahydropyran-4-ylcarbonyl)thiazol-2-yl]-2-[4-(2-methoxy-2-methylpropyl)piperazin-1-yl]acetamide]		105 to 107 °C
COC1(CN2CCN(CC(=O)Nc3nc(-c4ccco4)c(C(=O)C4CCOCC4)s3)CC2)CC1 [Compound 472, N-[4-(2-Furyl)-5-(tetrahydropyran-4-ylcarbonyl)thiazol-2-yl]-2-{4-[(1-methoxycyclopropyl)methyl]piperazin-1-yl}acetamide]		155 to 157 °C
CN1CCCN(CC(=O)Nc2nc(-c3ccco3)c(C(=O)C3CCOCC3)s2)CC1 [Compound 481, N-[4-(2-Furyl)-5-(tetrahydropyran-4-ylcarbonyl)thiazol-2-yl]-2-(4-methyl-1,4-diazepan-1-yl)acetamide]		94 to 96 °C
O=C(CNC12CC3CC(CC(C3)C1)C2)Nc1nc(-c2ccco2)c(C(=O)C2CCOCC2)s1 [Compound 482, N-[4-(2-Furyl)-5-(tetrahydropyran-4-ylcarbonyl)thiazol-2-yl]-2-(adamantan-1-ylamino)acetamide]		168 to 170 °C
O=C(CNC12CC3CC(CC(O)(C3)C1)C2)Nc1nc(-c2ccco2)c(C(=O)C2CCOCC2)s1 [Compound 483, N-[4-(2-Furyl)-5-(tetrahydropyran-4-ylcarbonyl)thiazol-2-yl]-2-(3-hydroxyadamantan-1-ylamino)acetamide]		176 to 178 °C
CCOC(=O)Nc1nc(-c2ccco2)c(C(=O)C2CCOCC2)s1 [Compound 486, Ethyl N-[4-(2-furyl)-5-(tetrahydropyran-4-ylcarbonyl)thiazol-2-yl]carbamate]		152 to 153 °C
Cc1ncc(C(=O)Nc2nc(-c3ccco3)c(C(=O)C3CCSCC3)s2)cn1 [Compound 494, N-[4-(2-Furyl)-5-(tetrahydrothiopyran-4-ylcarbonyl)thiazol-2-yl]-2-methylpyrimidine-5-carboxamide]		238 to 240 °C
COc1ccc(-c2c[nH]c(-c3nc(-c4ccco4)c(C(=O)C4CCOCC4)s3)n2)cc1 [Compound 520, 4-(2-Furyl)-2-[4-(4-methoxyphenyl)imidazol-2-yl]thiazol-5-yl tetrahydropyran-4-yl ketone]		178 to 180 °C
